Results on twelve molecules are retold here after US11332473B2, “Substituted pyrazolo[3,4-d]pyrimidines as Wee1 inhibitors” (NUVATION BIO INC., priority 2019, dated 2022).

Assay [1] deals with WEE1 kinase enzyme (Homo sapiens (Human), UniProt P30291). The assay is described as follows: WEE1 IC50 determination, LanthaScreen Terbium Labeled TR-FRET kinase assay. The class given is biochemical. Conditions: WEE1 enzyme 1 nM, ATP 10 μM. As to the method: IC50 values of compounds against WEE1 kinase enzyme were determined by LanthaScreen™ Terbium Labeled TR-FRET assay. Kinase assays were performed in 1X kinase buffer (#PV6135, Invitrogen, Life Technologies Grand Island, N.Y.) where total reaction volume was 10 μL in low-volume 384-well plates (#4511, Corning). Serially diluted compounds (3-fold) were incubated with WEE1 Enzyme (1 nM) (#PR7373A, Invitrogen, Life Technologies, Grand Island, N.Y.) for 10 min; a mixture of ATP (10 μM) (#A1852, Sigma, St. Louis, Mo.) and fluorescent-PolyGT substrate (200 nM) (#PV3610, Invitrogen, Life Technologies Grand Island, N.Y.) was added and incubated in dark at room temperature for 1 h. After 1 h, 10 μL stop solution containing Terbium labeled antibody (4 nM) (#PV3529, Invitrogen, Life Technologies Grand Island, N.Y.) and EDTA (#E5134, Sigma, St. Louis, Mo.) (20 mM) in TR-FRET dilution buffer (#PV3574, Invitrogen, Life Technologies Grand Island, N.Y.) was added. Readings were taken in a Synergy Neo Plate reader (BioTek, Winooski, Vt.) at single excitation of 340 nm and dual emission at 495 nm and 520 nm respectively.
The % activity of test samples was calculated as (Sample−Min)*100/(Max−Min). [Max: DMSO control, complete reaction with enzyme & DMSO and Min: No enzyme & DMSO].
On the technique in general: In TR-FRET formats the signal depends on donor and acceptor labels being close together.

Assay [2] has as its system A427 cells. The experiment in a line: Cytotoxicity assay in A427 cell line (resazurin). The format is cell-based. Conditions: Homo sapiens, A-427; A427 lung epithelial cell line, 72 hr, inhibition of proliferation. The protocol:
A427 (HTB-53; ATCC), a lung epithelial cell line, was seeded in medium (MEM, 41090101; Gibco) at a cell count of 1500 cells per 100 μL per well in a 96 well edge plate (167425; ThermoFisher). Cells were allowed to grow at 37° C. for 24 hr in 5% CO2 environment (culture conditions) in a Nuaire incubator (humidified). Serially diluted test compounds (100 μL) within the desired testing concentration ranges were added to the culture plate and the cells were further incubated in culture conditions for 72 hr. The experiment was terminated at the designated incubation time by replacing the medium with 100 μL of 1 mM of resazurin (R7017; Sigma) prepared in culture medium, and the plates were further incubated in culture conditions for 4-6 hr. Fluorescence was recorded using a multimodal plate reader (Biotek Synergy Neo) at an excitation wavelength of 535 nm and emission wavelength of 590 nm to obtain relative fluorescence units. Data were analysed as follows: the background fluorescence (blank containing only medium) value was subtracted from each reading and normalized with the vehicle control (DMSO treated cells) to obtain percent survival/proliferation. Percent survival was subtracted from 100 to get the percent inhibition of proliferation which was used to calculate IC50 values. Potency of compounds in other cell lines (such as A549, AsPc-1, Panc 10.05, A172, U-87MG) may be determined in an analogous manner.

The target of assay [3] is PKMYT1 kinase (Homo sapiens (Human), UniProt Q99640). The assay is described as follows: PKMYT1 IC50 determination, HotSpot Kinase Assay. The class given is biochemical. Conditions: 10 μM ATP, 33P-ATP, Myelin Basic Protein substrate. The protocol:
Inhibition of PKMYT1 kinase activity by test compounds was measured by the HotSpot Kinase Assay at Reaction Biology Corporation (Malvern, Pa.). Briefly, Myelin Basic Protein substrate was prepared in Reaction Buffer (20 mM Hepes (pH 7.5), 10 mM MgCl2, 1 mM EGTA, 0.01% Brij35, 0.02 mg/mL BSA, 0.1 mM Na3VO4, 2 mM DTT, 1% DMSO). PKMYT1 kinase was delivered into the substrate solution and gently mixed. Test compounds in 100% DMSO were added into the kinase reaction mixture by Acoustic technology (Echo550; nanoliter range) and incubated for 20 min at room temperature. ^33P-ATP was delivered into the reaction mixture to initiate the reaction. Reactions were carried out at 10 μM ATP. After a 2 hour incubation at room temperature, kinase activity was detected by P81 filter-binding method. […] A nonlinear regression model with a sigmoidal dose response and variable slope within GraphPad Prism (GraphPad Software, San Diego, Calif.) was used to calculate the IC50 value of individual test compounds.

In assay [4] the test system is phospho-CDC2 in AsPC-1 cells. The assay is described as follows: Phospho-CDC2 (Tyr15) sandwich ELISA in AsPC-1 cells. The class given is cell-based. Conditions: Homo sapiens, ASPC1. As to the method:
(§1) Changes in the levels of phospho-CDC2 following treatment of cells with test compounds were assessed by enzyme-linked immunosorbent assay (ELISA). A427 cells or AsPC-1 cells were plated in 6-well plates and cultured for 24 hr to approximately 80-90% confluency. Medium was replaced, and the cells were treated with the vehicle control or the test compound at several different concentrations. After incubation of treated cells in cell culture conditions for a specified time (e.g., 24 hr), cells were rinsed with ice-cold PBS and lysed in 1× cell lysis buffer containing protease inhibitors and phosphatase inhibitors. The cells were scraped from the plate with a cell scraper after a brief incubation on ice and transferred to a centrifuge tube, and then subjected to three freeze-thaw cycles in liquid nitrogen and a 37° C. water bath for further lysis. The lysates were centrifuged to pellet cell debris (using, for example, a 10 min centrifugation of 2000× g at 4° C.) and the supernatants transferred to fresh tubes on ice. The protein concentrations of the samples were estimated by the Bradford method or equivalent. The ELISA was carried out with the PathScan® Phospho-CDC2 (Tyr15) Sandwich ELISA Kit (Cat. #7176, Cell Signaling Technology, Danvers, Mass.) according to the manufacturer's instructions.
Background: ELISA stands for enzyme-linked immunosorbent assay.

The subject of assay [5] is phospho-CDC2 in A427 cells. The experiment in a line: Phospho-CDC2 (Tyr15) sandwich ELISA in A427 cells. The class given is cell-based. The settings on record: Homo sapiens, A-427. As to the method:
as §1

Chain of WEE1 kinase enzyme (P30291 whole entry): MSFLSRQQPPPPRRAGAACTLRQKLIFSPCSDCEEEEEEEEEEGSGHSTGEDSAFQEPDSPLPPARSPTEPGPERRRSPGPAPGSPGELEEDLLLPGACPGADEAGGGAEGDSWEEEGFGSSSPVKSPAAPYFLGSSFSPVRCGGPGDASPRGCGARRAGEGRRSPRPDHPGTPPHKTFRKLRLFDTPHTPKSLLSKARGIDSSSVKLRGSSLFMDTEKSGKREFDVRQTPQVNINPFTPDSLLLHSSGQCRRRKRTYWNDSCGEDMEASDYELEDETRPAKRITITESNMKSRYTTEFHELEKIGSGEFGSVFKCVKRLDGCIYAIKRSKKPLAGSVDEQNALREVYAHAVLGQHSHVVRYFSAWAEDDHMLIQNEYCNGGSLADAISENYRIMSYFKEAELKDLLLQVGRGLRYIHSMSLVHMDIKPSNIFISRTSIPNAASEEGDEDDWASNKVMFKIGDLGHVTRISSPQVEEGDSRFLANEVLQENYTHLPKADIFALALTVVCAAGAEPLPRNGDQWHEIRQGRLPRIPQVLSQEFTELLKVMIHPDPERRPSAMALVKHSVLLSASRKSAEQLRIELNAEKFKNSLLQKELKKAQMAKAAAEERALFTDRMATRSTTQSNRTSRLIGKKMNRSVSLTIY
Chain of PKMYT1 kinase (Q99640 whole entry): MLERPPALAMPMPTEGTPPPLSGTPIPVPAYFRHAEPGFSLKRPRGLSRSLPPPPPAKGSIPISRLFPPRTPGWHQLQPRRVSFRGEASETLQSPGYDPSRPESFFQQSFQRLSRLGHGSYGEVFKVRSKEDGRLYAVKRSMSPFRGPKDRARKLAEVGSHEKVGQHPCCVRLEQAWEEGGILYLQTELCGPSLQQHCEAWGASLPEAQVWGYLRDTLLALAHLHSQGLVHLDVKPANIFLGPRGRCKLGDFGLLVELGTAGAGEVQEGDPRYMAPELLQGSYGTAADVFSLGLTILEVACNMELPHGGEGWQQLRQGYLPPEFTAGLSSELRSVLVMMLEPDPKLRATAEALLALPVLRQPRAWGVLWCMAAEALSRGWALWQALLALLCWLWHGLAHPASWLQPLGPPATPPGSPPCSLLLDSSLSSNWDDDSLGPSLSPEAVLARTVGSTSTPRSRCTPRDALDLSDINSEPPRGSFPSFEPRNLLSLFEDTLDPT

On to `CC(C)n1c(=O)c2cnc(Nc3ccc4c(c3)CCNC4(C)C)nc2n1-c1cccc(C2(C#N)CC2)n1` [1.45, 1-(6-(6-(1,1-dimethyl-1,2,3,4-tetrahydroisoquinolin-6-ylamino)-2-isopropyl-3-oxo-2,3-dihydro-1H-pyrazolo[3,4-d]pyrimidin-1-yl)pyridin-2-yl)cyclopropanecarbonitrile], for which the IC50 in assay [1] is 10 nM; in assay [2], 2180 nM; in assay [3], 1540 nM; in assay [4], 285 nM; in assay [5], 66 nM.
`CC(C)n1c(=O)c2cnc(Nc3ccc4c(c3)CCNC4)nc2n1-c1ccc(F)c(C(C)(C)O)n1` [1.249, 1-(5-fluoro-6-(2-hydroxypropan-2-yl)pyridin-2-yl)-2-isopropyl-6-((1,2,3,4-tetrahydroisoquinolin-6-yl)amino)-1,2-dihydro-3H-pyrazolo[3,4-d]pyrimidin-3-one]: the IC50 in assay [1] came to 16 nM; in assay [2] it was 592 nM; in assay [3], 20100 nM; in assay [5], 230 nM.
In the case of `CC(C)(F)c1nc(-n2c3nc(Nc4ccc5c(c4)CCNC5)ncc3c(=O)n2C2CC2)ccc1F` [1.2, 2-cyclopropyl-1-(5-fluoro-6-(2-fluoropropan-2-yl)pyridin-2-yl)-6-((1,2,3,4-tetrahydroisoquinolin-6-yl)amino)-1,2-dihydro-3H-pyrazolo[3,4-d]pyrimidin-3-one], the IC50 in assay [1] turned out to be 36 nM; in assay [2] it was 3410 nM; in assay [3], 10200 nM; in assay [5], 952 nM.
The like results for `CC(C)n1c(=O)c2cnc(Nc3ccc4c(c3)CCNC4)nc2n1-c1cccc(C2(C#N)CC2)n1` [1.43, 1-(6-(2-isopropyl-3-oxo-6-((1,2,3,4-tetrahydroisoquinolin-6-yl)amino)-2,3-dihydro-1H-pyrazolo[3,4-d]pyrimidin-1-yl)pyridin-2-yl)cyclopropane-1-carbonitrile] were, in that order, 9 nM, 1480 nM, 5630 nM and 320 nM.
For `CC(C)n1c(=O)c2cnc(Nc3ccc4c(c3)CNCC4)nc2n1-c1nc(C(C)(C)C)c(Cl)s1` [1.349, 1-(4-(tert-butyl)-5-chlorothiazol-2-yl)-2-isopropyl-6-((1,2,3,4-tetrahydroisoquinolin-7-yl)amino)-1,2-dihydro-3H-pyrazolo[3,4-d]pyrimidin-3-one], the IC50 in assay [1] worked out at 384 nM; in assay [2], 490 nM; in assay [3], 19900 nM.
`CC(C)n1c(=O)c2cnc(Nc3ccc4c(c3)CCNC4)nc2n1-c1ccc(F)c(C(C)(C)F)n1` [1.1, 1-(5-fluoro-6-(2-fluoropropan-2-yl)pyridin-2-yl)-2-isopropyl-6-((1,2,3,4-tetrahydroisoquinolin-6-yl)amino)-1,2-dihydro-3H-pyrazolo[3,4-d]pyrimidin-3-one]: the concentration for half-maximal inhibition (IC50) was found to be 6 nM in assay [1], 3740 nM in assay [2], 6570 nM in assay [3] and 339 nM in assay [5].
With `CC(C)n1c(=O)c2cnc(Nc3ccc4c(c3)CNCC4)nc2n1-c1csc(C2CC2)n1` [1.465, 1-(2-cyclopropylthiazol-4-yl)-2-isopropyl-6-((1,2,3,4-tetrahydroisoquinolin-7-yl)amino)-1,2-dihydro-3H-pyrazolo[3,4-d]pyrimidin-3-one], the IC50 in assay [1] was 45 nM; in assay [2] it was > 30000 nM; in assay [3] it was > 30000 nM.
In the case of `CCn1c(=O)c2cnc(Nc3ccc4c(c3)CNCC4)nc2n1-c1cccc(C2(CF)CC2)n1` [1.86, 2-ethyl-1-(6-(1-(fluoromethyl)cyclopropyl)pyridin-2-yl)-6-((1,2,3,4-tetrahydroisoquinolin-7-yl)amino)-1,2-dihydro-3H-pyrazolo[3,4-d]pyrimidin-3-one], the IC50 was 2 nM in assay [1], 685 nM in assay [2] and 4200 nM in assay [3].
The like results for `CCn1c(=O)c2cnc(Nc3ccc4c(c3)CCNC4)nc2n1-c1cccc(C2(C#N)CC2)n1` [1.37, 1-(6-(2-ethyl-3-oxo-6-((1,2,3,4-tetrahydroisoquinolin-6-yl)amino)-2,3-dihydro-1H-pyrazolo[3,4-d]pyrimidin-1-yl)pyridin-2-yl)cyclopropane-1-carbonitrile] were, in that order, 13 nM, 660 nM and 691 nM.
On to `CCn1c(=O)c2cnc(Nc3ccc4c(c3)CNCC4)nc2n1-c1cccc(C2(C#N)CC2)n1` [1.38, 1-(6-(2-ethyl-3-oxo-6-((1,2,3,4-tetrahydroisoquinolin-7-yl)amino)-2,3-dihydro-1H-pyrazolo[3,4-d]pyrimidin-1-yl)pyridin-2-yl)cyclopropane-1-carbonitrile], for which the IC50 amounted to 4 nM in assay [1], 401 nM in assay [2], 223 nM in assay [3] and 176 nM in assay [5].
As to `CC(C)n1c(=O)c2cnc(Nc3ccc4c(c3)CNCC4)nc2n1-c1cccc(C2(C#N)CC2)n1` [1.44, 1-(6-(2-isopropyl-3-oxo-6-((1,2,3,4-tetrahydroisoquinolin-7-yl)amino)-2,3-dihydro-1H-pyrazolo[3,4-d]pyrimidin-1-yl)pyridin-2-yl)cyclopropane-1-carbonitrile], the IC50 in assay [1] was found to be 3 nM; in assay [2], 892 nM; in assay [3], 1170 nM.
The like results for `CC(C)n1c(=O)c2cnc(Nc3ccc4c(c3)CCNC4)nc2n1-c1nc(C(C)(C)C#N)ccc1F` [1.321, 2-(5-fluoro-6-(2-isopropyl-3-oxo-6-(1,2,3,4-tetrahydroisoquinolin-6-ylamino)-2,3-dihydro-1H-pyrazolo[3,4-d]pyrimidin-1-yl)pyridin-2-yl)-2-methylpropanenitrile] were, in that order, 13 nM, 3540 nM and 11200 nM.

A word on the IC50: it is the concentration that inhibits the measured activity by half.
